The source of these data is EP4745135A1 (Gluetacs Therapeutics (Shanghai) Co., Ltd., priority 2023, dated 2025).

Assay [1] concerns the target T1, CK1α (Homo sapiens, UniProt P48729+Q96SW2).
T1 construct: effects of the compounds of the present disclosure on the expression of target proteins in cells; endogenous in cells; host or cells: human PBMCs (Milecell Biotechnologies)
Nature of the assay: Western blot, degradation of substrate protein in hPBMCs. Format: cell-based.

Assay [2] deals with T2, IKZF1 (Homo sapiens, UniProt Q13422+Q96SW2).
T2 construct: effects of the compounds of the present disclosure on the expression of target proteins in cells; endogenous in cells; host or cells: human PBMCs (Milecell Biotechnologies)
The assay is described as above. Format: cell-based.

Assay [3] has as its target T3, IKZF2 (Homo sapiens, UniProt Q96SW2+Q9UKS7).
T3 construct: effects of the compounds of the present disclosure on the expression of target proteins in cells; endogenous in cells; host or cells: human PBMCs (Milecell Biotechnologies)
Described as above. The assay is classed as cell-based.

The target of assay [4] is T4, IKZF3 (Homo sapiens, UniProt Q96SW2+Q9UKT9).
T4 construct: effects of the compounds of the present disclosure on the expression of target proteins in cells; endogenous in cells; host or cells: human PBMCs (Milecell Biotechnologies)
Described as above. The assay is classed as cell-based.

For assay [5], the target named is T5, WEE1 (Homo sapiens, UniProt P30291+Q96SW2).
T5 construct: effects of the compounds of the present disclosure on the expression of target proteins in cells; endogenous in cells; host or cells: human PBMCs (Milecell Biotechnologies)
Described as above. The assay is classed as cell-based.

The test system of assay [6] is GSPT1. The assay is described as above. The assay is classed as cell-based, Human.
The target in assay [7] is T6, human Cereblon WT GST-tagged protein (Homo sapiens, UniProt Q96SW2).
T6 construct: purchased CISBIO 64BDCRBNPEH
Briefly: CRBN-binding affinity, HTRF (CEREBLON BINDING kit). Conditions: for inhibition at 0.5 µM: read-out: Inhibition Rate at 0.5 µM (%); for inhibition at 2 µM: read-out: Inhibition Rate at 2 µM (%).

For assay [8], the system named is Human multiple myeloma cell (MM.1S). Briefly: Tumor cell proliferation inhibition (CellTiter-Meiluncell luminescent cell viability assay). The note with it: for inhibition at 0.01 µM / inhibition at 0.5 µM: Homo sapiens, MM1.S, 96 h; for inhibition at 0.01 µM: read-out: Inhibition Rate at 10 nM (%); for inhibition at 0.5 µM: read-out: Inhibition Rate at 500 nM (%).

The subject of assay [9] is Human multiple myeloma peripheral blood B lymphocyte cell (RPMI-8226). The assay is described as above. Conditions: RPMI-8226, 96 h; for inhibition at 0.01 µM: read-out: Inhibition Rate at 10 nM (%); for inhibition at 0.5 µM: read-out: Inhibition Rate at 500 nM (%).
The test system of assay [10] is Human acute T lymphocytic leukemia cell (Molt4). The description is as above. Conditions: MOLT-4, 96 h; for inhibition at 0.01 µM: read-out: Inhibition Rate at 10 nM (%); for inhibition at 0.5 µM: read-out: Inhibition Rate at 500 nM (%).
Description: (§1) The tumor cells used herein were cultured in a cell culture medium listed in table 2 at 37°C in an incubator with 5% CO2. Prior to experimentation, all cell lines used were correctly identified by STR profiling, and tested negative for mycoplasma contamination using a mycoplasma detection kit through routine screenings.
(§2) The IC50 values of the compounds of the present disclosure (including the compounds in Table 1 and Examples) were determined using the CellTiter-Meiluncell Luminescent Cell Viability Assay Kit from Dalian Meilun Biotech Co., Ltd. The detailed procedure is as follows: Tumor cells were seeded in 96-well cell culture plates at the densities specified in Table 3. On the following day, the test compounds of the present disclosure were subjected to serial dilution. The dilution can be performed according to one of the following two methods: • (1) The first dilution method: The test compounds of the present disclosure (including the compounds in Table 1 and Examples) were subjected to 5-fold serial dilutions starting from a highest concentration of 2000 µM, resulting in a total of 9 concentrations from high to low (2000, 400, 80, 16, 3.2, 0.64, 0.128, 0.0256, 0.00512 µM). Subsequently, 0.5 µL of the test compound dilution was transferred into the 96-well plate containing the cells, with each well containing 100 µL of cell culture medium. […] Into the 96-well plate, the diluted test compounds and corresponding detection reagents were added, resulting in final test compound concentrations of 500 nM and 10 nM, respectively. The experimental procedure is described below using the diluted 2 µM test compound as an example.
(§3) 0.5 µL of the aforementioned diluted compound of the present disclosure (including the compounds in Table 1 and Examples) was added to the seeded cells in 100 µL of medium, yielding a final test compound concentration of 10 nM. After the cells were treated with the compounds of the present disclosure for a specified period, the cell viability assay reagent was added to the culture medium according to the kit's instructions to determine cell viability. […] All controls were treated using the same procedure as the compounds of the present disclosure. The growth inhibition curves for the compounds of the present disclosure were plotted using Prism GraphPad software, and the IC50 values were calculated therefrom.
The subject of assay [11] is Human myeloid monocytic leukemia cell (MV-4-11). Described as above. Conditions: MV4-11, 96 h; for inhibition at 0.01 µM: read-out: Inhibition Rate at 10 nM (%); for inhibition at 0.5 µM: read-out: Inhibition Rate at 500 nM (%).
Assay [12] deals with Human breast cancer cell (MCF-7). The assay is described as above. The note with it: MCF7, 96 h; for inhibition at 0.5 µM: read-out: Inhibition Rate at 500 nM (%).
Assay [13] concerns Human T cell acute lymphoblastic leukemia cell (CCRF-CEM). The assay is described as above. Conditions: 96 h; for inhibition at 0.01 µM: read-out: Inhibition Rate at 10 nM (%); for inhibition at 0.5 µM: read-out: Inhibition Rate at 500 nM (%).
The subject of assay [14] is Human acute myeloid leukemia cell line: Kasumi-1. Described as above. The note with it: Kasumi 1, 96 h; for inhibition at 0.01 µM: read-out: Inhibition Rate at 10 nM (%); for inhibition at 0.5 µM: read-out: Inhibition Rate at 500 nM (%).
The subject of assay [15] is Human T lymphocytic leukemia cell line: Jurkat. The assay is described as above. The note with it: 96 h; for inhibition at 0.01 µM: read-out: Inhibition Rate at 10 nM (%); for inhibition at 0.5 µM: read-out: Inhibition Rate at 500 nM (%).
Description: as §1, §2, §3
[16] abbreviates: Western blot, 24 hours of compound treatment, compounds tested at 50 nM and 500 nM (concentration for the table not stated).
Setting [17] is: 24 hours treatment, compounds at 50 nM and 500 nM (concentration behind the class not stated).

Molecules are shown by their SMILES.

T1 sequence (P48729 whole entry): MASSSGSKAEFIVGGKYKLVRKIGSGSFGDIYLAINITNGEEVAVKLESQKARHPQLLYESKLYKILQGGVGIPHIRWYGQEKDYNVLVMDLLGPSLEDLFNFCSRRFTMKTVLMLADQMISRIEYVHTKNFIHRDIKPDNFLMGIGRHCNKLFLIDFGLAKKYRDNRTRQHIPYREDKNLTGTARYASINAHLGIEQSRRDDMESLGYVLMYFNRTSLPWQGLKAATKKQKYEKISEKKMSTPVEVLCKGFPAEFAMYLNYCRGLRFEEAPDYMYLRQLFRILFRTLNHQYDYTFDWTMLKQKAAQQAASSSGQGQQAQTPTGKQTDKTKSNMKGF
T1 sequence (Q96SW2 whole entry): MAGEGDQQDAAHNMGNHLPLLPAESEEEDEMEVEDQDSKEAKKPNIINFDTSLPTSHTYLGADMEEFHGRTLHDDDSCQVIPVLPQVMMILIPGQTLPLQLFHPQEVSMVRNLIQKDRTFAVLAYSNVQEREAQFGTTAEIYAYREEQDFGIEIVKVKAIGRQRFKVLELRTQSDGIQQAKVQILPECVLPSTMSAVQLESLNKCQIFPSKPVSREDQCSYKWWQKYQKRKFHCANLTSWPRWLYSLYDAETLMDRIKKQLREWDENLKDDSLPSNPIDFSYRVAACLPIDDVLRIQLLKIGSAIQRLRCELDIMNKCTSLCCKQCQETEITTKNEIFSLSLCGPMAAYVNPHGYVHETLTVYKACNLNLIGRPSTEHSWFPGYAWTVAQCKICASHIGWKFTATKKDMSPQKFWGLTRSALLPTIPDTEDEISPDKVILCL
T1 sequence (Q16531 whole entry partner): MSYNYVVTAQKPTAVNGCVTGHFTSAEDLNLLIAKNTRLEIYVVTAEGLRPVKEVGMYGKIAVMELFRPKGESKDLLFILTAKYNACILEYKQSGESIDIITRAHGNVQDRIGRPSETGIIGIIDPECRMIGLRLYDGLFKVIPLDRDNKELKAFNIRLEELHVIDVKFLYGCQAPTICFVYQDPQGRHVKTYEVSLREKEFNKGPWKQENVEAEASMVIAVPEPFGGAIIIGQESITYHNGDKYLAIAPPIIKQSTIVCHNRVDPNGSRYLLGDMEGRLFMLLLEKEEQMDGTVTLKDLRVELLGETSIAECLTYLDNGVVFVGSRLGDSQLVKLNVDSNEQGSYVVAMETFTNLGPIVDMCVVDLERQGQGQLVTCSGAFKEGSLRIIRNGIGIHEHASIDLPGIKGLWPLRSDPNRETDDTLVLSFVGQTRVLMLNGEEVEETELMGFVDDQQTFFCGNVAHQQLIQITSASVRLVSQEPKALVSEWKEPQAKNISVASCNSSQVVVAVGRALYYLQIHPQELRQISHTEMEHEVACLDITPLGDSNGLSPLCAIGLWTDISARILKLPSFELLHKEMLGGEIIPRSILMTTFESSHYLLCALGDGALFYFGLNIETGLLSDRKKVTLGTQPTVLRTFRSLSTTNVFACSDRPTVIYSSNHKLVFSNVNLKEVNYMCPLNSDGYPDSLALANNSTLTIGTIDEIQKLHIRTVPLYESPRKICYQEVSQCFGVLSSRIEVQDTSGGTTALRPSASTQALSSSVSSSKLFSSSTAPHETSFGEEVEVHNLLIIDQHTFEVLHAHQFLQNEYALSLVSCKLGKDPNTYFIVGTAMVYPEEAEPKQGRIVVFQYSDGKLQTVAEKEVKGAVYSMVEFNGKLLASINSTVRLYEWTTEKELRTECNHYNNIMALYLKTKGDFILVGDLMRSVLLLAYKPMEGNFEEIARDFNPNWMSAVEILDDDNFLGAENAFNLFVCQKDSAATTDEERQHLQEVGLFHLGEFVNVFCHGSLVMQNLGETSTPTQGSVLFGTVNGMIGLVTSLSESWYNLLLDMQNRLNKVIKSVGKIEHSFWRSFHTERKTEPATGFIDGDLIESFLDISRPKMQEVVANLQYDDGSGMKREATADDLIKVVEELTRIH
T3 sequence (Q9UKS7 whole entry): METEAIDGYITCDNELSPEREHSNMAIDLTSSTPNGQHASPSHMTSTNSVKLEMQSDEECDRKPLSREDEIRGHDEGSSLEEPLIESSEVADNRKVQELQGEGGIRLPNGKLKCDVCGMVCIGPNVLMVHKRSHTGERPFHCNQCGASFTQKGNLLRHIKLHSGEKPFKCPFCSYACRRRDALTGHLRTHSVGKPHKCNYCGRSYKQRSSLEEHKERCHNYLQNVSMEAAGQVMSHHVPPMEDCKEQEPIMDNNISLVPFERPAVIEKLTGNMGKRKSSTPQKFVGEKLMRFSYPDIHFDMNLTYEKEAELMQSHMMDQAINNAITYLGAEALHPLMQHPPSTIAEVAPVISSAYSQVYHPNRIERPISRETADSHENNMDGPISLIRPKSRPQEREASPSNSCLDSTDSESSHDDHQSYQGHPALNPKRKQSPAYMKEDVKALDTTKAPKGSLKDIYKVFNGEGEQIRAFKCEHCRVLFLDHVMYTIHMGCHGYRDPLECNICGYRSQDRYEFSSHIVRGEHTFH
T3 sequence (Q96SW2 whole entry): as the sequence (Q96SW2 whole entry) above
T3 sequence (Q16531 whole entry partner): as the sequence (Q16531 whole entry partner) above
T6 sequence (Q96SW2 whole entry): as the sequence (Q96SW2 whole entry) above
T4 sequence (Q9UKT9 whole entry): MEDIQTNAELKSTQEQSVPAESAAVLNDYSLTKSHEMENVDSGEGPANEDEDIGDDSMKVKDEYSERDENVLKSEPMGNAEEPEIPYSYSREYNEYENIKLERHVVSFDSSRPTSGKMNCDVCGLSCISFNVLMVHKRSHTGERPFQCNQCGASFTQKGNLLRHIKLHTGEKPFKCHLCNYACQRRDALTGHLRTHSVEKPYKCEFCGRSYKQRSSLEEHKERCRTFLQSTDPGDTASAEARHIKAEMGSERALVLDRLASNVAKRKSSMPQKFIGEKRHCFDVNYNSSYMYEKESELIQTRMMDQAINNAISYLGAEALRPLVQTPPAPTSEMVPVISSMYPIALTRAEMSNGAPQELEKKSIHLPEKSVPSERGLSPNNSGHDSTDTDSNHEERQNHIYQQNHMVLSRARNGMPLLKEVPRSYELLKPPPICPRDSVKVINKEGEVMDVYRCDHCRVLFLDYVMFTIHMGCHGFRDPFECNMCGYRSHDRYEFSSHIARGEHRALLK
T4 sequence (Q96SW2 whole entry): as the sequence (Q96SW2 whole entry) above
T4 sequence (Q16531 whole entry partner): as the sequence (Q16531 whole entry partner) above
T2 sequence (Q13422 whole entry): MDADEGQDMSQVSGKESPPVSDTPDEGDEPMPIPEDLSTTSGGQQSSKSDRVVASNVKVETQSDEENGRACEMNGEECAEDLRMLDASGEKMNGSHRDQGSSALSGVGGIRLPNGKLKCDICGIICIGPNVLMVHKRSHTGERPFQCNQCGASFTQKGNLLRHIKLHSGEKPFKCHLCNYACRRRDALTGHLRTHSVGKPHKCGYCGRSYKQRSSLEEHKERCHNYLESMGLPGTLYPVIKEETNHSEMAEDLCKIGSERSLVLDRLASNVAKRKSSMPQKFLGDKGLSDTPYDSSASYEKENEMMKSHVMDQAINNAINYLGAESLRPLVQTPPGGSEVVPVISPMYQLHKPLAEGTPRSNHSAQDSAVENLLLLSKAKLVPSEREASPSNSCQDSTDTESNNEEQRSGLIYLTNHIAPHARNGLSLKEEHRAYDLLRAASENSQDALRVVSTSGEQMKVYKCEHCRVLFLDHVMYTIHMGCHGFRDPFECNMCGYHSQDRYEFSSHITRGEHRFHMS
T2 sequence (Q96SW2 whole entry): as the sequence (Q96SW2 whole entry) above
T2 sequence (Q16531 whole entry partner): as the sequence (Q16531 whole entry partner) above
T5 sequence (P30291 whole entry): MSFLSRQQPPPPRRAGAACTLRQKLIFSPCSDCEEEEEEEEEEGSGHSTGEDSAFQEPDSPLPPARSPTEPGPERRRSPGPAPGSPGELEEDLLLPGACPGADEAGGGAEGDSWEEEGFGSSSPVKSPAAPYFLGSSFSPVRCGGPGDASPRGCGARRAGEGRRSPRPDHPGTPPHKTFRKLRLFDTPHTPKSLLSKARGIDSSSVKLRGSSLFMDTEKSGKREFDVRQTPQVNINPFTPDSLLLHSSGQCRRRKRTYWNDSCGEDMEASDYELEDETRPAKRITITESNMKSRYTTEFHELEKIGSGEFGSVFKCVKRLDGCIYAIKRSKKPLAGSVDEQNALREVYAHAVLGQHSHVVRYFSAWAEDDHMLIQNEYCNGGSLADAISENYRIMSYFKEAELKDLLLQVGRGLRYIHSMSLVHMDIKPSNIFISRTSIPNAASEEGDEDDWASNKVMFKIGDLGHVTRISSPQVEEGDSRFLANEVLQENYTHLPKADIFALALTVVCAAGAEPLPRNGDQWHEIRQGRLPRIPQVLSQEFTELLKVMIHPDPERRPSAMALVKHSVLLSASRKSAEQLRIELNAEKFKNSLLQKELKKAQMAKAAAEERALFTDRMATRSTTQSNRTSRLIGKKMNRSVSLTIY
T5 sequence (Q96SW2 whole entry): as the sequence (Q96SW2 whole entry) above
T5 sequence (Q16531 whole entry partner): as the sequence (Q16531 whole entry partner) above

Take `O=C1CCC(N2Cc3cc(CN4CCC(N(c5ccccc5)c5ccccn5)CC4)ccc3C2=S)C(=O)N1` (centres unmarked) [GT-07846, 3-(5-((4-(phenyl(pyridin-2-yl)amino)piperidin-1-yl)methyl)-1-thioxoisoindolin-2-yl)piperidine-2,6-dione]: in assay [1] (setting [16]), the “CK1α substrate protein remaining %” value was “B (80%< substrate protein remaining %≤ 100%)”. Besides, in assay [2] (setting [16]), the “IKZF 1 substrate protein remaining %” value is on record as “A (0% ≤ substrate protein remaining % ≤ 80%)”. Besides, the “IKZF2 substrate protein remaining %” value in assay [3] (setting [16]) was “A (0% ≤ substrate protein remaining % ≤ 80%)”. Besides, the “IKZF3 substrate protein remaining %” value in assay [4] (setting [16]) is given as “A (0% ≤ substrate protein remaining % ≤ 80%)”. Besides, in [5] (setting [16]), the “Wee1 substrate protein remaining %” value was “A (0% ≤ substrate protein remaining % ≤ 80%)”. For the same compound, in assay [6] (setting [16]), the “GSPT1 substrate protein remaining %” value is “A (0% ≤ substrate protein remaining % ≤ 80%)”. For the same compound, the inhibition at 0.5 µM in assay [7] lay within 53 to 60%; in [8] it was 80 to 100%; in assay [9], 60 to 70%; in [10], 80 to 100%; in assay [11], 80 to 100%; in assay [12], 40 to 50%. In addition, the inhibition at 0.5 µM in assay [13], in [14] and in [15] was 80 to 100% in each case. In addition, the inhibition at 2 µM in assay [7] lay within 80 to 100%. Further, the inhibition at 0.01 µM in assay [8] was in the range of 60 to 70%; in assay [9] it was 20 to 30%; in assay [10], 70 to 80%; in assay [11], 10 to 18%; in assay [13] it was 40 to 50%; in [14] it was 40 to 50%. The inhibition at 0.01 µM in assay [15] fell in the range of 30 to 40%.

Regarding `O=C1CCC(N2Cc3cc(CN4CCN(Cc5ccccc5-c5ccc(Cl)cc5)CC4)ccc3C2=S)C(=O)N1` (centres unmarked) [GT-08166, 3-(5-((4-((4'-chloro-[1,1'-biphenyl]-2-yl)methyl)piperazin-1-yl)methyl)-1-thioxoisoindolin-2-yl)piperidine-2,6-dione], the “CK1α substrate protein remaining %” value in assay [1] (setting [17]) is on record as “B (80%< substrate protein remaining %≤ 100%)”. Moreover, the “IKZF 1 substrate protein remaining %” value in assay [2] (setting [17]) is “B (80%< substrate protein remaining %≤ 100%)”. Also, the “IKZF2 substrate protein remaining %” value in [3] (setting [17]) is on record as “A (0% ≤ substrate protein remaining % ≤ 80%)”. The “IKZF3 substrate protein remaining %” value in assay [4] (setting [17]) is on record as “A (0% ≤ substrate protein remaining % ≤ 80%)”. The “Wee1 substrate protein remaining %” value in assay [5] (setting [17]) is reported as “A (0% ≤ substrate protein remaining % ≤ 80%)”. For the same compound, in assay [6] (setting [17]), the “GSPT1 substrate protein remaining %” value was “A (0% ≤ substrate protein remaining % ≤ 80%)”. Moreover, the inhibition at 0.5 µM in assay [7] lay in the range of 20 to 30%; in [8], 80 to 100%; in assay [9], 60 to 70%; in assay [10] it was 80 to 100%; in assay [11], 80 to 100%; in [12], 60 to 70%. Besides, the inhibition at 0.5 µM in [13], in [14] and in assay [15] was 80 to 100% in each case. For the same compound, in assay [7], the inhibition at 2 µM lay in the range of 60 to 80%. In addition, the inhibition at 0.01 µM lay within 40 to 50% in assay [8]; 10 to 20% in assay [9]; 10 to 20% in assay [10]; 30 to 40% in [11]; 10 to 20% in assay [13]; 10 to 20% in [14]. For the same compound, the inhibition at 0.01 µM in [15] was 10 to 20%.

For the compound `O=C1CCC(N2Cc3cc(CN4CC=C(c5cccs5)CC4)ccc3C2=S)C(=O)N1` (centres unmarked) [GT-08171, 3-(5-((4-(thiophen-2-yl)-3,6-dihydropyridin-1(2H)-yl)methyl)-1-thioxoisoindolin-2-yl)piperidine-2,6-dione], the “CK1α substrate protein remaining %” value in assay [1] (setting [17]) is “A (0% ≤ substrate protein remaining % ≤ 80%)”. In addition, the “IKZF 1 substrate protein remaining %” value in [2] (setting [17]) is recorded as “A (0% ≤ substrate protein remaining % ≤ 80%)”. For the same compound, in assay [3] (setting [17]), the “IKZF2 substrate protein remaining %” value was “A (0% ≤ substrate protein remaining % ≤ 80%)”. In [4] (setting [17]), the “IKZF3 substrate protein remaining %” value is reported as “A (0% ≤ substrate protein remaining % ≤ 80%)”. For the same compound, the “Wee1 substrate protein remaining %” value in assay [5] (setting [17]) is “A (0% ≤ substrate protein remaining % ≤ 80%)”. In addition, in assay [6] (setting [17]), the “GSPT1 substrate protein remaining %” value is given as “A (0% ≤ substrate protein remaining % ≤ 80%)”. The inhibition at 0.5 µM in assay [7] was in the range of 60 to 80%; in assay [8], 80 to 100%; in [9], 80 to 100%; in assay [10], 80 to 100%; in assay [11], 80 to 100%; in assay [12], 70 to 80%. In addition, the inhibition at 0.5 µM in [13], in [14] and in [15] was 80 to 100% in each case. Besides, the inhibition at 2 µM in assay [7] was 80 to 100%. For the same compound, the inhibition at 0.01 µM in [8] fell in the range of 50 to 60%; in [9], 20 to 30%; in assay [10], 80 to 100%; in assay [11], 60 to 80%; in assay [12] (read-out: Inhibition Rate at 10 nM (%)) it was 20 to 30%; in assay [13], 70 to 80%. The values for the inhibition at 0.01 µM in [14] and in [15] were 30 to 40% and 40 to 50%, respectively.

On to `O=C1CCC(N2Cc3cc(CN4CCC(c5cccs5)CC4)ccc3C2=S)C(=O)N1` (centres unmarked) [GT-08329, 3-(5-((4-(thiophen-2-yl)piperidin-1-yl)methyl)-1-thioxoisoindolin-2-yl)piperidine-2,6-dione], for which the “CK1α substrate protein remaining %” value in assay [1] (setting [17]) was “A (0% ≤ substrate protein remaining % ≤ 80%)”. The “IKZF 1 substrate protein remaining %” value in [2] (setting [17]) is given as “B (80%< substrate protein remaining %≤ 100%)”. Also, the “IKZF2 substrate protein remaining %” value in assay [3] (setting [17]) is listed as “B (80%< substrate protein remaining %≤ 100%)”. Also, the “IKZF3 substrate protein remaining %” value in assay [4] (setting [17]) was “B (80%< substrate protein remaining %≤ 100%)”. In addition, the “Wee1 substrate protein remaining %” value in [5] (setting [17]) is given as “A (0% ≤ substrate protein remaining % ≤ 80%)”. The “GSPT1 substrate protein remaining %” value in assay [6] (setting [17]) is given as “A (0% ≤ substrate protein remaining % ≤ 80%)”. The inhibition at 0.5 µM is 40 to 53% in assay [7]; 70 to 80% in [9]; 80 to 100% in [10]; 80 to 100% in [11]; 80 to 100% in [13]; 80 to 100% in assay [14]. Also, in assay [15], the inhibition at 0.5 µM was 70 to 80%. Moreover, the inhibition at 2 µM in [7] is 80 to 100%. Also, the inhibition at 0.01 µM in assay [8] was 10 to 20%; in assay [9], 10 to 20%; in assay [10], 10 to 20%; in [11], -5 to 0%; in assay [13], 10 to 20%; in assay [14] it was 5 to 10%. For the same compound, the inhibition at 0.01 µM in assay [15] was in the range of 10 to 20%. The “Inhibition Rate at 500 nM (%)” value in assay [8] (MM.1S, 500 nM, 96 hours) is listed as “la10”.

One may read the inhibition as the relative decrease from the control value, in per cent.
